According to patent US20120296067A1, “COMPOUND CAPABLE OF BINDING TO NATURALLY OCCURRING DENATURED PROTEIN, AND METHOD FOR SCREENING FOR THE COMPOUND” (Prism BioLab Co., Ltd., priority 2010, published 2012):
Entries after “also recorded” stand apart in the source; their conditions may differ.

What was measured:
[1] = biological target: T1, CBP (1-111) (disordered sequence region) (Homo sapiens, UniProt Q92793); experiment: 2D NMR analysis of 15N-labeled CBP (1-111) with ICG-001; type: binding; details: 5 μM or 15 μM ICG-001
T1 construct: NMR analysis using CBP (1-111) expressed in E. coli as a sample; made in house; host or cells: E. coli
T1 sequence (Q92793 1-111): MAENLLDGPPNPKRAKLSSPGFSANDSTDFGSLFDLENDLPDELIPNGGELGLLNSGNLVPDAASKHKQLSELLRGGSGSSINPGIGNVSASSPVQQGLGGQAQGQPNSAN
Experimental: ^15N-labeled CBP (1^-111) (disordered sequence region) was expressed E. coli and dissolved in a buffer (NaP 25 mM·pH 6.8, NaCl 50 mM, 0.02% NaN3), and 300 μl thereof was introduced into an NMR sample tube. Moreover, a D2O solution of ICG-001 was added so as to attain an ICG^-001 concentration of 5 μM or 15 μM. Solutions prepared in this manner as NMR samples were subjected to an NMR analysis. In the NMR analysis, the measurement and analysis was carried out to give a 2D spectrum, with the X axis indicating […] data and the Y axis indicating N-15 data.

[2] = biological target: T2, p300 (1-111) (disordered sequence region) (Homo sapiens, UniProt Q09472); details: p300 (1-111) expressed in E. coli; cited from earlier work
T2 construct: made in house; host or cells: E. coli
T2 sequence (Q09472 1-111): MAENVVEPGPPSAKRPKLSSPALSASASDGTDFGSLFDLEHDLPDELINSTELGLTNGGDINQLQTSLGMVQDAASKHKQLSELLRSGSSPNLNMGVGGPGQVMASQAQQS

[3] = biological target: T3, CBP (1-111) (disordered sequence region) and β-catenin (Homo sapiens, UniProt Q92793); details: cited from earlier work
T3 construct: made in house; host or cells: E. coli
T3 sequence (Q92793 1-111): as the sequence (Q92793 1-111) above

[4] = biological target: T4, CBP (Homo sapiens, UniProt Q92793); details: SW480 nuclear extract; FIG. 1; cited from earlier work
T4 construct: endogenous in cells; host or cells: SW480 nuclear extract
T4 sequence (Q92793 whole entry): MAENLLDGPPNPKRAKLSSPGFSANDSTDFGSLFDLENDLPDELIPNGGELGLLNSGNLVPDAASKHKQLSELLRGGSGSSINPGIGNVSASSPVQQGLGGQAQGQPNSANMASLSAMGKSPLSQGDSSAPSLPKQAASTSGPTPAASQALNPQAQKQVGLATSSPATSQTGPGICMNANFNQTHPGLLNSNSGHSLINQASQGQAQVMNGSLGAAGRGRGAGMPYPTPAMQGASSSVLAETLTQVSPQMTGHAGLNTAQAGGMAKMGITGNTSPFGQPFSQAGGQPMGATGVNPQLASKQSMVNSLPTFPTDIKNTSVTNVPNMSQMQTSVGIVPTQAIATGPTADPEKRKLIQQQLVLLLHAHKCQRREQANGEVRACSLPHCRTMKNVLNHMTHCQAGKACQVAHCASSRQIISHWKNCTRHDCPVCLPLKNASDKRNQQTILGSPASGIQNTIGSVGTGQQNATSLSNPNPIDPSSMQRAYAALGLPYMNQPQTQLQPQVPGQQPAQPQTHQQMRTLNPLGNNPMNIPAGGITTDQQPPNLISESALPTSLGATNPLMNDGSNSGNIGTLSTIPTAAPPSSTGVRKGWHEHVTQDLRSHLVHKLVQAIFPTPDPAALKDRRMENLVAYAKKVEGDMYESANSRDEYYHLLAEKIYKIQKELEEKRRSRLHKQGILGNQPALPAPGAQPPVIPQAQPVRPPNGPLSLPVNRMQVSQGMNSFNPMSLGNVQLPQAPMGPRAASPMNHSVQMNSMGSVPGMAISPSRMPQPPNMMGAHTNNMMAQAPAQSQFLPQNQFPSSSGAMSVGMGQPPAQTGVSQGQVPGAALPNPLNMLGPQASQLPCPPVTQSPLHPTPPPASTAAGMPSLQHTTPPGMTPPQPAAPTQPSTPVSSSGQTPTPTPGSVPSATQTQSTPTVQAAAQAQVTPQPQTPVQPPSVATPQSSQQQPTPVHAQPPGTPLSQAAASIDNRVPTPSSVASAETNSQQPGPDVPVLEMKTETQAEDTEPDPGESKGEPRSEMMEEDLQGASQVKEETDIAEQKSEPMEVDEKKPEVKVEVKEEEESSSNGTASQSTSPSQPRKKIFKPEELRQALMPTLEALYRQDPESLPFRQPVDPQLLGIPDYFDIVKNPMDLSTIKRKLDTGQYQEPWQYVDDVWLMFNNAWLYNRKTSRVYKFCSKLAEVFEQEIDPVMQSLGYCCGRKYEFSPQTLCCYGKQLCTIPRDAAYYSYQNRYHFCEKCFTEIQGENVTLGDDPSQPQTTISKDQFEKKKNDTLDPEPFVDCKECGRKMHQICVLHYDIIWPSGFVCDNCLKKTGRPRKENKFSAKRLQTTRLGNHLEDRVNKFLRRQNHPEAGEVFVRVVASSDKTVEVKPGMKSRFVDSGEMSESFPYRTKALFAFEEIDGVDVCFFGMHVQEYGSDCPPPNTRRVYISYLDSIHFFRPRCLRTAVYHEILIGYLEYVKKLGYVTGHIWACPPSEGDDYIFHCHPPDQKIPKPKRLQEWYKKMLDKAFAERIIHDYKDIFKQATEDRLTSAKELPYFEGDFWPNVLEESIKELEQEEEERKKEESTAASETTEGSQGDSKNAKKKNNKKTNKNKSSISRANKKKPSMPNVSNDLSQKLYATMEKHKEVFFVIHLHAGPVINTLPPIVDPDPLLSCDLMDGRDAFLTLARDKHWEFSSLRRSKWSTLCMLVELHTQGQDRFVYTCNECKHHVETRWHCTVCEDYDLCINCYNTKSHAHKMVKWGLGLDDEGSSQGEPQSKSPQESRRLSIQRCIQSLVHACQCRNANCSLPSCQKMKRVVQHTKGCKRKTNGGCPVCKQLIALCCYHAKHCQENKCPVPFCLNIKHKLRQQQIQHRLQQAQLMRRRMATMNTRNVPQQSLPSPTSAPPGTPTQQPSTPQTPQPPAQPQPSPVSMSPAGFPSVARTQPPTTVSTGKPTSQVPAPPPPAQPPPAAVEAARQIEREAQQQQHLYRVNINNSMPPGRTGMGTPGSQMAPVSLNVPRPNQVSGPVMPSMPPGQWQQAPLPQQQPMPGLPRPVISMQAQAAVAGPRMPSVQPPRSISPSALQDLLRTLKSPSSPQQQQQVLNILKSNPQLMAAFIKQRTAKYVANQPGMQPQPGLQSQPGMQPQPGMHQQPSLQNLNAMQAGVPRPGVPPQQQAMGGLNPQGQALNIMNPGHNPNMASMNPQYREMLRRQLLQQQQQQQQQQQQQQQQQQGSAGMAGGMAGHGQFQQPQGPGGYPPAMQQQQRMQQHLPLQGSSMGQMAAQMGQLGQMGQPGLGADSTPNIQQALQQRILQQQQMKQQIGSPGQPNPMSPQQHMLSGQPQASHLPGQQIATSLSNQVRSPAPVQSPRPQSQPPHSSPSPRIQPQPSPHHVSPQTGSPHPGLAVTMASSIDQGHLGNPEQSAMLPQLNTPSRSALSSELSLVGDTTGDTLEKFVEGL

Structure (SMILES): O=C1[C@H](Cc2ccc(O)cc2)N2C(=O)CCN(C(=O)NCc3ccccc3)[C@H]2CN1Cc1cccc2ccccc12 [ICG-001]
- interaction between CBP1-111 and compound (NMR) [1]: clear interaction
- change of NMR peak of CBP1-111 on addition of compound ([1]; buffer pH 6.8, FIGS. 5 and 6): change of a peak
- binding to p300 [2]: does not binds to p300; also recorded: did not bind; also recorded: does not occur
- separation of CBP (1-111) from β-catenin on addition of compound ([3]; CBP (1-111) and β-catenin expressed in E. coli, pulled down by immunoprecipitation): CBP (1-111) became separated
- binding to the N-terminus of CBP ([3]; CBP (1-111), FIG. 2): binds to the N-terminus sequence of CBP; also recorded: bound to the N-terminus of CBP
- binding to CBP (pull-down) [4]: binds to CBP; also recorded: bound to CBR
